# Counter-ions that a name gives are not always drawn.
# Assay: in vitro
# Conditions: rat, gh3-tre-luc cells, AC50 (uM) modified / 1000
row,Structure (SMILES),CC50 at 24 h [µM]
1,COc1cc(NS(=O)(=O)c2ccc(N)cc2)nc(C)n1 [Sulfamethomidine],> 50
2,CC(CC=O)CCCC(C)(C)O (centres unmarked) [Hydroxycitronella],> 90
3,"Cc1cccc([N+](=O)[O-])c1C [1,2-Dimethyl-3-nitrobenzene]",> 90
4,"Cc1ccc(N/N=c2\c(=O)cc/c(=N/Nc3ccc(S(=O)(=O)O)cc3)c2=O)c(C)c1 [C.I. Acid Orange 24, monosodium salt]",59.4
5,O=C(OCCN1CCCCC1)C(O)(c1ccccc1)c1ccccc1 [Piperilate hydrochloride],> 50
6,Cl[Si](Cl)(c1ccccc1)c1ccccc1 [Dichlorodiphenylsilane],> 90
7,O=Cc1ccc(CO)o1 [5-(Hydroxymethyl)-2-furfural],> 90
8,CCO[Si](CCCNC(N)=O)(OCC)OCC [1-[3-(Triethoxysilyl)propyl]urea],> 90
9,O=C(O)CCCCCCCCCCCBr [12-Bromododecanoic acid],> 90
10,CN(C1CCCCC1)S(=O)(=O)c1ccccc1N [2-Amino-N-cyclohexyl-N-methylbenzenesulfonamide],> 90
11,CC/C=C/C#N [2-Pentenenitrile],> 90
12,CC(C)(S)[C@@H](N)C(=O)O [D-Penicillamine],> 50
13,"N=C1N=C(N)c2cc3ccccc3cc21 [1,3-Diiminobenz(f)isoindoline]",39.2
14,CCCCOCC1CO1 (centres unmarked) [Butyl glycidyl ether],> 90
15,CC(C)(O)C(=O)Nc1ccc([N+](=O)[O-])c(C(F)(F)F)c1 [Hydroxyflutamide],> 90
16,CN[C@@H](C)Cc1ccccc1 [S-(+)-Methamphetamine hydrochloride],> 90
17,O=[N+]([O-])c1ccccc1 [Nitrobenzene],> 90
18,"CC1OC(=O)C(C)OC1=O (centres unmarked) [3,6-Dimethyl-2,5-dioxo-1,4-dioxane]",> 90
19,"CCC(N)(CO)CO [2-Amino-2-ethyl-1,3-propanediol]",> 90
20,CSSc1ccoc1C [Methyl 2-methyl-3-furyl disulfide],> 80
21,COc1ccc2c3c1O[C@H]1[C@H](O)CC[C@H]4[C@@H](C2)N(C)CC[C@@]341 [Dihydroisocodeine],> 90
22,O=C1CCCCCCCCCCCCCCO1 [Pentadecan-15-olide],> 90
23,FC(F)(F)C(F)(F)C(F)(F)C(F)(F)C(F)(F)F [Perflenapent],> 50
24,CC(=O)Oc1ccc(C(C)=O)cc1 [4-Acetylphenyl acetate],> 100

row,Structure (SMILES),CC50 at 24 h [µM]
1,Cc1cc(C)cc(C(=O)OC2C[C@H]3CC[C@@H](C2)N3C)c1 (some centres unmarked),22.4
2,CC(C)C[C@H](NC(=O)[C@@H](COC(C)(C)C)NC(=O)[C@H](Cc1ccc(O)cc1)NC(=O)[C@H](CO)NC(=O)[C@H](Cc1c[nH]c2ccccc12)NC(=O)[C@H](Cc1cnc[nH]1)NC(=O)[C@@H]1CCC(=O)N1)C(=O)N[C@@H](CCCNC(=N)N)C(=O)N1CCC[C@H]1C(=O)NNC(N)=O [Goserelin acetate],> 50
3,CN(C)CCc1c[nH]c2cccc(OP(=O)(O)O)c12 [Psilocybin],> 90
4,CC(=O)OCC(=O)[C@@]1(O)CC[C@H]2[C@@H]3CCC4=CC(=O)CC[C@]4(C)C3=CC[C@@]21C [Anecortave acetate],> 50
5,O=c1[nH]c(=O)c2ccccc2o1 [Carsalam],> 50
6,CC1(O)CCC(C(C)(C)O)CC1 (centres unmarked) [Terpin],> 50
7,"O=C(O)c1cc(Cl)cc(Cl)c1O [3,5-Dichlorosalicylic acid]",> 90
8,CN1CCN(c2c(F)cc3c(=O)c(C(=O)O)cn4c3c2SCC4)CC1 [Rufloxacin hydrochloride],> 50
9,CCCCCCCCCCCCCCCCCCOCCO [Polyethylene glycol stearyl ether],> 20
10,COc1ccccc1/C=C/C=O [trans-2-Methoxycinnamaldehyde],> 90
11,OCC(CO)(CBr)CBr [Pentaerythritol dibromide],> 90
12,C[C@](N)(Cc1ccc(O)c(O)c1)C(=O)O [Methyldopa sesquihydrate],> 90
13,C=CCCCCCCCCCCC [1-Tridecene],> 5
14,CCCCOc1ccc(C(=O)CCN2CCCCC2)cc1 [Dyclonine hydrochloride],4.72
15,C#C[C@]1(OC(=O)CCCCCC)CC[C@H]2[C@@H]3CCC4=CC(=O)CC[C@@H]4[C@H]3CC[C@@]21C [Noristerat],10.7
16,Nc1cc(Cl)cc(C(=O)O)c1Cl [Chloramben],> 90
17,CC(C)(O)C(=O)c1ccccc1 [2-Hydroxy-2-methylpropiophenone],> 90
18,C[C@]12C[C@H](O)[C@H]3[C@@H](CCC4=CC(=O)CC[C@@]43C)[C@@H]1CC[C@@H]2C(=O)CO [Corticosterone],> 90
19,COC(=O)C1CCC(C(=O)OC)CC1 (centres unmarked) [Dimethyl hexahydroterephthalate],> 90
20,CCn1cc(C(=O)O)c(=O)c2cc(F)c(N3CCNC(C)C3)c(F)c21 (centres unmarked) [Lomefloxacin hydrochloride],> 50
21,CC(C)(C)OCC1CO1 (centres unmarked) [tert-Butyl glycidyl ether],> 90
22,COc1ccc2c(c1)C(=O)N(CCc1ccc(S(=O)(=O)NC(=O)NC3CCCCC3)cc1)C(=O)C2(C)C [Gliquidone],> 20
23,NCCc1c[nH]cn1 [Histamine],> 50
24,CCCCOC(=O)CCC(C)=O [Butyl 4-oxopentanoate],> 90

row,Structure (SMILES),CC50 at 24 h [µM]
1,C[C@H]1c2cccc(O)c2C(=O)C2=C(O)[C@]3(O)C(=O)C(C(N)=O)=C(O)[C@@H](N(C)C)[C@@H]3[C@@H](O)[C@@H]21 [Doxycycline hydrochloride],> 50
2,CCOCCOCCOCC [Diethylene glycol diethyl ether],> 90
3,C=CC(OCC)OCC [Acrolein diethylacetal],> 90
4,O=C1NCN(c2ccccc2)C12CCN(CCCC(c1ccc(F)cc1)c1ccc(F)cc1)CC2 [Fluspirilene],4.02
5,CCCCCCCCCCCCCCCCN(C)C [Dimethylcetylamine],> 5
6,CC(C)COC(=O)OCN1C(=O)CN(CCN2CC(=O)N(COC(=O)OCC(C)C)C(=O)C2)CC1=O [Sobuzoxane],> 50
7,CN1C[C@@H](NS(=O)(=O)N(C)C)C[C@@H]2c3cccc4c3c(cn4C)C[C@H]21 [Mesulergine],22.3
8,CCC(C)c1cc([N+](=O)[O-])cc([N+](=O)[O-])c1OC(=O)C=C(C)C (centres unmarked) [Binapacryl],36.3
9,Cc1ccnc(N)c1 [4-Methylpyridin-2-amine],> 90
10,CCCCC(O)c1ccccc1 (centres unmarked) [Fenipentol],> 50
11,"CC=C(Cl)Cl [1,1-Dichloropropene]",> 90
12,CCCCCc1cc(O)c2c(c1)OC(C)(C)[C@@H]1CCC(C)=C[C@@H]21 [Tetrahydrocannabinol],10.9
13,CO[C@H]1[C@@H](O)C[C@H](O[C@H]2[C@@H](O)C[C@H](O[C@H]3[C@@H](O)C[C@H](O[C@H]4CC[C@@]5(C)[C@H](CC[C@@H]6[C@@H]5C[C@@H](O)[C@]5(C)[C@@H](C7=CC(=O)OC7)CC[C@]65O)C4)O[C@@H]3C)O[C@@H]2C)O[C@@H]1C [Methyldigoxin],> 50
14,CN(C)C(=O)Nc1cccc(C(F)(F)F)c1 [Fluometuron],> 90
15,CCCCCCCCCCCc1ccccc1 [1-Phenylundecane],> 90
16,CS(=O)(=O)OCCCNCCCOS(C)(=O)=O [Improsulfan tosylate],> 50
17,CN1CCCN=C1/C=C/c1cccs1 [Pyrantel tartrate],> 50
18,O=C(Nc1ccc(F)cc1F)c1cccnc1Oc1cccc(C(F)(F)F)c1 [Diflufenican],> 100
19,"Nc1ccc(Oc2ccc(N)cc2)cc1 [4,4'-Oxydianiline]",> 90
20,O=C(NC(=O)c1c(F)cccc1F)Nc1ccc(Cl)cc1 [Diflubenzuron],> 90
21,O=C(O)Cn1c(C(=O)Nc2nc(-c3ccccc3Cl)cs2)cc2ccccc21 [Lintitript],> 50
22,C[C@H](CN1CCCC1)C(=O)c1ccc(C(F)(F)F)cc1 [Lanperisone hydrochloride],> 50
23,CC(=O)OCC1=C(C(=O)O)N2C(=O)[C@@H](NC(=O)Cc3cccs3)[C@H]2SC1 [Cephalothin],> 50

# Same assay, conditions: rat, gh3-tre-luc cells, AC50 (uM) modified / 1000, Tox21_110001=Tox21_110352; viability, 1 nM T3 present, 24 h
row,Structure (SMILES),CC50 at 24 h [µM]
1,CCC1(C)CC(=O)NC(=O)C1 [Bemegride],> 20

# Same assay, conditions: rat, gh3-tre-luc cells, AC50 (uM) modified / 1000, Tox21_110001=Tox21_110399; viability, 1 nM T3 present, 24 h
row,Structure (SMILES),CC50 at 24 h [µM]
1,OC(c1ccccc1)(c1ccccc1)C1CCNCC1 [Azacyclonol],> 20

# Same assay, conditions: rat, gh3-tre-luc cells, AC50 (uM) modified / 1000, Tox21_110001=Tox21_111092; viability, 1 nM T3 present, 24 h
row,Structure (SMILES),CC50 at 24 h [µM]
1,O=C(O)COc1ccccc1 [Phenoxyacetic acid],> 50

# Same assay, conditions: rat, gh3-tre-luc cells, AC50 (uM) modified / 1000, Tox21_110001=Tox21_200092; viability, 1 nM T3 present, 24 h
row,Structure (SMILES),CC50 at 24 h [µM]
1,COP(=O)(OC)OC(=CCl)c1cc(Cl)c(Cl)cc1Cl [Tetrachlorovinphos],> 100

# Same assay, conditions: rat, gh3-tre-luc cells, AC50 (uM) modified / 1000, Tox21_110001=Tox21_200121; viability, 1 nM T3 present, 24 h
row,Structure (SMILES),CC50 at 24 h [µM]
1,Brc1cccc(-c2ccccc2)c1 [3-Bromobiphenyl],> 90

# Same assay, conditions: rat, gh3-tre-luc cells, AC50 (uM) modified / 1000, Tox21_110001=Tox21_200365; viability, 1 nM T3 present, 24 h
row,Structure (SMILES),CC50 at 24 h [µM]
1,CC(C)[N+](=O)[O-] [2-Nitropropane],> 90

# Same assay, conditions: rat, gh3-tre-luc cells, AC50 (uM) modified / 1000, Tox21_110001=Tox21_201854; viability, 1 nM T3 present, 24 h
row,Structure (SMILES),CC50 at 24 h [µM]
1,O=C(O)COc1ccccc1 [Phenoxyacetic acid],> 90

# Same assay, conditions: rat, gh3-tre-luc cells, AC50 (uM) modified / 1000, Tox21_110001=Tox21_202829; viability, 1 nM T3 present, 24 h
row,Structure (SMILES),CC50 at 24 h [µM]
1,CC[C@H](N)c1ccccc1 [(S)-(-)-1-Amino-1-phenylpropane],> 90

# Same assay, conditions: rat, gh3-tre-luc cells, AC50 (uM) modified / 1000, Tox21_110001=Tox21_302219; viability, 1 nM T3 present, 24 h
row,Structure (SMILES),CC50 at 24 h [µM]
1,CCOP(=S)(NC(C)C)Oc1ccccc1C(=O)OC(C)C (centres unmarked) [Isofenphos],78.7
